Measurements reported in ChEMBL document CHEMBL2062370, “Identification of glycogen synthase kinase-3 inhibitors with a selective sting for glycogen synthase kinase-3α” (J Med Chem, 2012).

Tests used:
[1] = target: Glycogen synthase kinase-3 beta (Homo sapiens, UniProt P49841); assay: Inhibition of human recombinant GSK3beta
[2] = target: Cyclin-dependent kinase 5/CDK5 activator 1 (Homo sapiens, UniProt Q00535); assay: Inhibition of human recombinant CDK5/p35 by FRET assay; format: protein-complex assay
[3] = target: Protein kinase C alpha type (Homo sapiens, UniProt P17252); assay: Inhibition of human recombinant PKCalpha by FRET assay
[4] = target: Glycogen synthase kinase-3 alpha (Homo sapiens, UniProt P49840); assay: Inhibition of human recombinant GSK3alpha
[5] = target: Casein kinase I isoform epsilon (Homo sapiens, UniProt P49674); assay: Inhibition of human recombinant CK1epsilon by FRET assay
[6] = species: Danio rerio; assay: Toxicity in wild type zebrafish embryo assessed as mortality up to 30 uM treated 5 hrs after post fertilization measured 5 days after post fertilization by microscopy; format: organism-based; conditions: in vivo, 120 h
[7] = target: T1, Aurora kinase A (Homo sapiens, UniProt O14965); assay: Inhibition of human recombinant AurKA by FRET assay
T1 sequence (O14965 whole entry): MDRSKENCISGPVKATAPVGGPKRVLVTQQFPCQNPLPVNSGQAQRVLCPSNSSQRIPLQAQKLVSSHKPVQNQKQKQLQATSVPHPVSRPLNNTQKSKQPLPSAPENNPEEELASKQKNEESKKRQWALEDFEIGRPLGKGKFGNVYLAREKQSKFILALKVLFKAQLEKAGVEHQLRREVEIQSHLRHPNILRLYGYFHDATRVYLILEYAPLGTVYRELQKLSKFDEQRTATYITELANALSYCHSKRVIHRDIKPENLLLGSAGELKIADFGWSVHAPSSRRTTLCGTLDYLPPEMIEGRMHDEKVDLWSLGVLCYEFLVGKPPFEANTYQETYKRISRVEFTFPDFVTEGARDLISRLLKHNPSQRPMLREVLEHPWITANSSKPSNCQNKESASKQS

[8] = Octanol-phosphate buffer partition coefficient, log D of the compound at 100 uM at pH 7.4 after 60 mins by HPLC-UV/VIS spectroscopic analysis; format: physicochemical
[9] = tested on: Caco-2; assay: Permeability from apical to basolateral side of human Caco2 cells at pH 6.5/7.4 after 60 mins by HPLC MS/ Mass spectroscopic analysis; format: ADME, cell-based; conditions: caco-2, pH 6.5, 1 h
[10] = Aqueous solubility of the compound at 200 uM at pH 7.4 in phosphate buffer saline after 24 hrs by HPLC-UV/VIS spectroscopic analysis; format: physicochemical; conditions: pH 7.4, 24 h
[11] = tested on: Liver microsomes; assay: Metabolic stability in human liver microsomes after 60 mins by HPLC MS/ Mass spectroscopic analysis; format: ADME, Microsome; conditions: 1 h

Glycogen synthase kinase-3 beta, sequence (P49841 whole entry): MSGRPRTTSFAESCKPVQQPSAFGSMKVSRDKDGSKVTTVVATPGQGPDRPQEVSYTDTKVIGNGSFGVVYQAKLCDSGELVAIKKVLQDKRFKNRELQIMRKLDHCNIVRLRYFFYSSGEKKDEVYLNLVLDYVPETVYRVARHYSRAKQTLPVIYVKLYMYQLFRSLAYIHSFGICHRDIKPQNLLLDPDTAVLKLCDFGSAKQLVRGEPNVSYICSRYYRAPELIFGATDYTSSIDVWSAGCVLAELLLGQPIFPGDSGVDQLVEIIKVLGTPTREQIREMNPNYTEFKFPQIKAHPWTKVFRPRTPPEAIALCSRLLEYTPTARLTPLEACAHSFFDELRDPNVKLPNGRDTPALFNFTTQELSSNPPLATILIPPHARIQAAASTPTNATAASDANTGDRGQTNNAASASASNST
Casein kinase I isoform epsilon, sequence (P49674 whole entry, canonical isoform): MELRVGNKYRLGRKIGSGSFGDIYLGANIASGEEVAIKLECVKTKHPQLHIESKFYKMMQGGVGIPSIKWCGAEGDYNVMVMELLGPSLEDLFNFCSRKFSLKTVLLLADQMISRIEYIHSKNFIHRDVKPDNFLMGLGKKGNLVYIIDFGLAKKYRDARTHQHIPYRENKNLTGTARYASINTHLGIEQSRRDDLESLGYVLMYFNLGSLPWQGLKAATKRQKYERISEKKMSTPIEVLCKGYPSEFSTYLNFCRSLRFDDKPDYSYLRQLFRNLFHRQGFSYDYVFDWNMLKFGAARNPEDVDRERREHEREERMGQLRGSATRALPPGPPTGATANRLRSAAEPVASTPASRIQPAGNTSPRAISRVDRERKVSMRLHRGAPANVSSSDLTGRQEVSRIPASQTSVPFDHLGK
Glycogen synthase kinase-3 alpha, sequence (P49840 whole entry, canonical isoform): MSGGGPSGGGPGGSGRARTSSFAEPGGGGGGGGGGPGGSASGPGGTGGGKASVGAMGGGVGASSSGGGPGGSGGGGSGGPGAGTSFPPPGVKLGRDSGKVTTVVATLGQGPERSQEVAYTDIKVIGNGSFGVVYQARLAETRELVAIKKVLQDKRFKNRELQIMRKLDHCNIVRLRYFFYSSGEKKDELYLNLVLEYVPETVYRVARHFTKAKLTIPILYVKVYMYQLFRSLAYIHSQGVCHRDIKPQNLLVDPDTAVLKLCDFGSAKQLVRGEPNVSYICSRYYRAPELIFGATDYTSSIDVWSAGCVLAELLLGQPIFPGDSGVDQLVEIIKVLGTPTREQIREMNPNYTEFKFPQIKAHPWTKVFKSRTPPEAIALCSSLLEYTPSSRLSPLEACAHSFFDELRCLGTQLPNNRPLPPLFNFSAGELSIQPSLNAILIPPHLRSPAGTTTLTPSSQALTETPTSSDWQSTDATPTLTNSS
Cyclin-dependent kinase 5/CDK5 activator 1, sequence (Q00535 whole entry): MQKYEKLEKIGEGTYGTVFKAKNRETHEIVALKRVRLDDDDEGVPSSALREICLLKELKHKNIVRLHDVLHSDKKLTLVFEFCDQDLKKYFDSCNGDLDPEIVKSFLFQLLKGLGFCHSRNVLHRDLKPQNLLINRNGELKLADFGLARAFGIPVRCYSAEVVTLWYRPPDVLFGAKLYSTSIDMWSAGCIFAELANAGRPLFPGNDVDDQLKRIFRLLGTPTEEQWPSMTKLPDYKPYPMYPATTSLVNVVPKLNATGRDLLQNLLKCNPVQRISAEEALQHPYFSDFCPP
Cyclin-dependent kinase 5/CDK5 activator 1, sequence (Q15078 whole entry, further chain): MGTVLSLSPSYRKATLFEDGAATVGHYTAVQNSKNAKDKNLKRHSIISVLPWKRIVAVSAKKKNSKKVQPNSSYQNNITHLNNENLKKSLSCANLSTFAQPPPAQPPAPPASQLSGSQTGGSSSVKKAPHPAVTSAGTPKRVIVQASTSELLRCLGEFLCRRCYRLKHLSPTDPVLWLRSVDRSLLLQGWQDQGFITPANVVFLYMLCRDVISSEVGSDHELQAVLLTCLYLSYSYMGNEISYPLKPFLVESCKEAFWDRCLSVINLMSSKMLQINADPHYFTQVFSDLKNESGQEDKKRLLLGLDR

Row | Structure (SMILES) | IC50 [1] | IC50 [2] | IC50 [3] | IC50 [4] | IC50 [5] | Activity [6] | IC50 [7] | logD at 1 h, 100 µM [8] | permeability [9] | solubility [10] | Stability [11]
1 | COCC1COc2ccc(-c3nnc(SCc4ccc(-c5ccccc5C#N)cc4)o3)cc2O1 (racemic) | 0.233 µM | > 100 µM | > 100 µM | 0.054 µM | > 100 µM | Non-toxic | 30 µM | – | – | – | –
2 | CC(C)CNC(=O)c1ccc(CSc2nnc(-c3ccc4c(c3)OCCO4)o2)cc1 | – | – | – | – | – | Non-toxic | – | – | – | – | –
3 | N#Cc1ccc(-c2ccc(CSc3nnc(-c4ccc5c(c4)OCO5)o3)cc2)cc1 | – | > 100 µM | > 100 µM | – | 60 µM | Non-toxic | 30 µM | 3.58 | impermeable | Insoluble | Stable
4 | N#Cc1ccccc1-c1ccc(CSc2nnc(-c3ccc4c(c3)OCCO4)o2)cc1 | < 0.005 µM | > 100 µM | > 100 µM | < 0.005 µM | > 100 µM | Non-toxic | > 100 µM | – | – | – | –
5 | c1ccc(CSc2nnc(-c3ccncc3)o2)cc1 | 1.32 µM | – | – | 2.24 µM | – | Non-toxic | – | – | – | – | –
6 | N#Cc1ccc(CSc2nnc(-c3ccncc3)o2)cc1 | 10 µM | – | – | 7.38 µM | – | Non-toxic | – | – | – | – | –
7 | N#Cc1ccccc1-c1ccc(CSc2nnc(-c3ccc4c(c3)OCO4)o2)cc1 | 0.039 µM | > 100 µM | > 100 µM | < 0.005 µM | > 100 µM | Non-toxic | > 100 µM | – | – | – | –
8 | N#Cc1cc(F)ccc1-c1ccc(CSc2nnc(-c3ccc4c(c3)OCO4)o2)cc1 | 0.022 µM | > 100 µM | > 100 µM | 0.003 µM | 20 µM | Non-toxic | 30 µM | – | – | – | –
9 | N#Cc1cc(F)ccc1-c1ccc(CSc2nnc(-c3ccc4c(c3)OCCO4)o2)cc1 | – | > 100 µM | > 100 µM | – | > 100 µM | Non-toxic | 5 µM | – | – | – | –
10 | O=C(NCc1ccccc1)c1ccc(CSc2nnc(-c3ccc4c(c3)OCCO4)o2)cc1 | – | – | – | – | – | Non-toxic | – | – | – | – | –
11 | c1ccc(-c2ccc(CSc3nnc(-c4ccc5c(c4)OCO5)o3)cc2)cc1 | 0.176 µM | > 100 µM | > 100 µM | 0.009 µM | > 100 µM | Non-toxic | > 100 µM | – | – | – | –
12 | COC(=O)c1ccc(CSc2nnc(-c3ccc4c(c3)OCO4)o2)cc1 | – | – | – | – | – | Non-toxic | – | – | – | – | –
13 | N#Cc1cccc(CSc2nnc(-c3ccc4c(c3)OCO4)o2)c1 | 0.065 µM | – | – | 0.015 µM | – | Non-toxic | – | – | – | – | –
14 | O=C(O)c1ccc(CSc2nnc(-c3ccc4c(c3)OCCO4)o2)cc1 | – | – | – | – | – | Non-toxic | – | – | – | – | –
15 | N#Cc1ccc(CSc2nnc(-c3ccc4c(c3)OCCO4)o2)cc1 | 0.166 µM | – | – | 0.045 µM | – | Non-toxic | – | – | – | – | –
16 | COC[C@H]1COc2ccc(-c3nnc(SCc4ccc(-c5ccccc5C#N)cc4)o3)cc2O1 | 0.129 µM | > 100 µM | > 100 µM | 0.015 µM | > 100 µM | Non-toxic | > 100 µM | – | – | – | –
17 | COC(CNC(=O)c1ccc(CSc2nnc(-c3ccc4c(c3)OCO4)o2)cc1)OC | – | – | – | – | – | Non-toxic | – | – | – | – | –
18 | Ic1cccc(CSc2nnc(-c3ccncc3)o2)c1 | – | – | – | 0.39 µM | – | Non-toxic | – | – | – | – | –
19 | O=C(O)c1ccc(CSc2nnc(-c3ccc4c(c3)OCO4)o2)cc1 | – | – | – | – | – | Non-toxic | – | – | – | – | –
20 | c1cc(-c2nnn[nH]2)ccc1CSc1nnc(-c2ccc3c(c2)OCO3)o1 | 0.172 µM | – | – | 0.107 µM | – | Non-toxic | – | – | – | – | –
21 | N#Cc1cccc(CSc2nnc(-c3ccc4c(c3)OCCO4)o2)c1 | 0.086 µM | – | – | 0.095 µM | – | Non-toxic | – | – | – | – | –
22 | COC[C@@H]1COc2ccc(-c3nnc(SCc4ccc(-c5ccccc5C#N)cc4)o3)cc2O1 | 0.758 µM | > 100 µM | > 100 µM | 0.195 µM | > 100 µM | Non-toxic | > 100 µM | – | – | – | –
23 | N#Cc1cccc(CSc2nnc(-c3ccncc3)o2)c1 | 3.16 µM | – | – | 3.21 µM | – | Non-toxic | – | – | – | – | –
24 | COC(CNC(=O)c1ccc(CSc2nnc(-c3ccc4c(c3)OCCO4)o2)cc1)OC | – | – | – | – | – | Non-toxic | – | – | – | – | –
25 | CC(C)CNC(=O)c1ccc(CSc2nnc(-c3ccc4c(c3)OCO4)o2)cc1 | – | – | – | – | – | Non-toxic | – | – | – | – | –
26 | COC(=O)c1ccc(CSc2nnc(-c3ccc4c(c3)OCCO4)o2)cc1 | – | > 100 µM | > 100 µM | – | > 100 µM | Non-toxic | > 100 µM | – | – | – | –
27 | N#Cc1ccc(CSc2nnc(-c3ccc4c(c3)OCO4)o2)cc1 | 0.13 µM | – | – | 0.015 µM | – | Non-toxic | – | – | – | – | –
28 | N#Cc1ccccc1-c1ccc(CSc2nnc(-c3ccncc3)o2)cc1 | 0.041 µM | > 100 µM | > 100 µM | 0.019 µM | > 100 µM | Non-toxic | > 100 µM | – | – | – | –
